In patent US9321767B2, “Azabenzimidazoles as respiratory syncytial virus antiviral agents” (JANSSEN SCIENCES IRELAND UC, priority 2010, dated 2016) one finds EC50 and TOX-HELA_EC50 data, which are given here for 19 compounds.

Read-outs that look alike come from different tables or passages of the source.

For one data set, the system named is rgRSV224 virus. Briefly: microbe, parasite or virus in culture. Conditions: read-out: RSV-wt_EC50. The class given is cell-based, respiratory syncytial virus (RSV). Here is the method: (§1) Black 96-well clear-bottom microtiter plates (Corning, Amsterdam, The Netherlands) were filled in duplicate using a customized robot system with serial 4-fold dilutions of compound in a final volume of 50 μl culture medium [RPMI medium without phenol red, 10% FBS, 0.04% gentamycin (50 mg/mL) and 0.5% DMSO]. Then, 100 μl of a HeLa cell suspension (5×10^4 cells/mL) in culture medium was added to each well followed by the addition of 50 μl rgRSV224 (MOI=0.02) virus in culture medium using a multidrop dispenser (Thermo Scientific, Erembodegem, Belgium). rgRSV224 virus is an engineered virus that includes an additional GFP gene (Hallak et al, 2000) and was in-licensed from the NIH (Bethesda, Md., USA). Medium, virus- and mock-infected controls were included in each test. Cells were incubated at 37° C. in a 5% CO2 atmosphere. Three days post-virus exposure, viral replication was quantified by measuring GFP expression in the cells by a MSM laser microscope (Tibotec, Beerse, Belgium). The EC50 was defined as the 50% inhibitory concentration for GFP expression. In parallel, compounds were incubated for three days in a set of white 96-well microtitier plates (Corning) and the cytotoxicity of compounds in HeLa cells was determined by measuring the ATP content of the cells using the ATPlite kit (PerkinElmer, Zaventem, Belgium) according to the manufacturer's instructions. The CC50 was defined as the 50% concentration for cytotoxicity.

The test system of a further data set is HeLa cells. Briefly: Cytotoxicity in HeLa cells, ATP content (ATPlite kit). Format: cell-based. On the procedure:
as §1
A general note: In ATP-based viability assays light output follows the ATP content of the culture.

Setting [1] is: human respiratory syncytial virus, HeLa, 72 h.
Where [2] appears, read: HeLa cells, three days incubation, ATP content.

Turning to `CC(C)CCn1c(Cn2c(=O)n(C3CC3)c3ccccc32)nc2nc(Cl)ccc21` [Compound 13, 3-((5-chloro-1-isopentyl-1H-imidazo[4,5-b]pyridin-2-yl)methyl)-3-cyclopropyl-1H-benzo[d]imidazol-2(3H)-one], the EC50 in the data set with rgRSV224 virus (setting [1]) worked out at 2.3 nM. This compound also yielded a TOX-HELA_EC50 in the data set with HeLa cells (setting [2]) of over 9.84 µM.

As for `O=c1n(Cc2nc3cc(Br)cnc3n2CCCCO)c2cnccc2n1C1CC1` [Compound 19, 3-((6-bromo-3-(4-hydroxybutyl)-3H-imidazo[4,5-b]pyridin-2-yl)methyl)-1-cyclopropyl-1H-imidazo[4,5-c]pyridin-2(3H)-one], the EC50 with rgRSV224 virus (setting [1]) was found to be 19.1 nM. Also, the TOX-HELA_EC50 in the data set with HeLa cells (setting [2]) is over 98.3603 µM.

On to `CC(C)CCn1c(Cn2c(=O)n(C3COC3)c3ccncc32)nc2ncccc21` [Compound 9, 3-((1-isopentyl-1H-imidazo[4,5-b]pyridin-2-yl)methyl)-1-(oxetan-3-yl)-1H-imidazo[4,5-c]pyridin-2(3H)-one], for which the EC50 in the data set with rgRSV224 virus (setting [1]) came out at 58.1 nM. For the same compound, in the data set on HeLa cells (setting [2]), the TOX-HELA_EC50 was over 9.836 µM.

Take `CC(C)(C)C(=O)OCCCCn1c(Cn2c(=O)n(C3CC3)c3ccncc32)nc2nc(Cl)ccc21` [Compound 3, 4-(5-chloro-2-((1-cyclopropyl-2-oxo-1H-imidazo[4,5-c]pyridin-3(2H)-yl)methyl)-1H-imidazo[4,5-b]pyridin-1yl)butyl pivalate]: the EC50 in the data set on rgRSV224 virus (setting [1]) was determined as 3.29 nM. The compound further gave a TOX-HELA_EC50 in the data set with HeLa cells (setting [2]) of over 9.836 µM.

For the compound `CC(C)CCn1c(Cn2c(=O)n(C3CC3)c3ccncc32)nc2cc(Br)cnc21` [Compound 16, 3-((6-bromo-3-isopentyl-3H-imidazo[4,5-b]pyridin-2-yl)methyl)-1-cyclopropyl-1H-imidazo[4,5-c]pyridin-2(3H)-one], the EC50 with rgRSV224 virus (setting [1]) worked out at 8.81 nM. Further, the TOX-HELA_EC50 in the data set with HeLa cells (setting [2]) is over 98.3603 µM.

In the case of `CC(C)CCn1c(Cn2c(=O)n(C(C)C)c3ccnc(C#N)c32)nc2cccnc21` [Compound 29, 3-((3-isopentyl-3H-imidazo[4,5-b]pyridin-2-yl)methyl)-1-isopropyl-2-oxo-2,3-dihydro-1H-imidazo[4,5-c]pyridine-4-carbonitrile], in the data set with rgRSV224 virus (setting [1]), the EC50 was over 98400 nM. Moreover, the TOX-HELA_EC50 with HeLa cells (setting [2]) was over 98.3603 µM.

Turning to `O=c1n(Cc2nc3cnccc3n2CCCCO)c2cnccc2n1C1CC1` [Compound 35], the EC50 in the data set on rgRSV224 virus (rgRSV224 in HeLa cells, three days post-virus exposure, GFP expression) turned out to be 79.5 nM. Moreover, the TOX-HELA_EC50 with HeLa cells was over 98.3603 µM.

Take `O=c1n(Cc2nc3nc(Cl)ccc3n2CCCCF)c2cnccc2n1C1CC1` [Compound 40, 3-((5-chloro-1-(4-fluorobutyl)-1H-imidazo[4,5-b]pyridin-2-yl)methyl)-1-cyclopropyl-1H-imidazo[4,5-c]pyridin-2(3H)-one]: the EC50 with rgRSV224 virus (setting [1]) turned out to be 2 nM. In the data set on HeLa cells (setting [2]), this compound registered a TOX-HELA_EC50 of over 98.3603 µM.

For the compound `O=c1n(Cc2nc3ncccc3n2CCCCF)c2cnccc2n1C1CC1` [Compound 42, 1-cyclopropyl-3-((1-(4-fluorobutyl)-1H-imidazo[4,5-b]pyridin-2-yl)methyl)-1H-imidazo[4,5-c]pyridin-2(3H)-one], the EC50 with rgRSV224 virus (setting [1]) is 5.2 nM. The TOX-HELA_EC50 with HeLa cells (setting [2]) is over 98.3603 µM.

Take `CN(C)c1nccc2c1nc(Cn1c(=O)n(C3CC3)c3ccncc31)n2CCCCO` [Compound 37]: the EC50 with rgRSV224 virus (setting [1]) was found to be 274 nM. In the data set with HeLa cells (setting [2]), this compound showed a TOX-HELA_EC50 of over 9.836 µM.

`COCCCn1c(Cn2c(=O)n(C3CC3)c3ccncc32)nc2ncccc21` [Compound 10]: in the data set on rgRSV224 virus (setting [1]), the EC50 was 89.3 nM. The compound further displayed a TOX-HELA_EC50 with HeLa cells (setting [2]) of 4.756 µM.

With `O=c1n(Cc2nc3nc(Cl)ccc3n2CCCCO)c2cnccc2n1C1CC1` [Compound 14, 3-((5-chloro-1-(4-hydroxybutyl)-1H-imidazo[4,5-b]pyridin-2-yl)methyl)-1-cyclopropyl-1H-imidazo[4,5-c]pyridin-2(3H)-one], in the data set on rgRSV224 virus (setting [1]), the EC50 was found to be 6 nM. In the data set on HeLa cells (setting [2]), the TOX-HELA_EC50 was over 9.84 µM.

Turning to `CC(C)CCn1c(Cn2c(=O)n(C3CC3)c3ccncc32)nc2cc(B(O)O)cnc21` [Compound 23, 2-((1-cyclopropyl-2-oxo-1H-imidazo[4,5-c]pyridin-3(2H)-yl)methyl)-3-isopentyl-3H-imidazo[4,5-b]pyridin-6-ylboronic acid], the EC50 in the data set on rgRSV224 virus (setting [1]) worked out at 645 nM. Moreover, the TOX-HELA_EC50 in the data set with HeLa cells (setting [2]) was over 98.3603 µM.

Consider `CC(C)CCn1c(Cn2c(=O)n(C3CC3)c3ccncc32)nc2nc(Cl)ccc21` [Compound 1, 3-((5-chloro-1-isopentyl-1H-imidazo[4,5-b]pyridin-2-yl)methyl)-1-cyclopropyl-1H-imidazo[4,5-c]pyridin-2(3H)-one], for which the EC50 with rgRSV224 virus (setting [1]) came out at 0.365 nM. Besides, in the data set on HeLa cells (setting [2]), the TOX-HELA_EC50 is over 9.836 µM.

For the compound `CC(C)CCn1c(Cn2c(=O)n(C3CC3)c3ccncc32)nc2nc(C(F)(F)F)ccc21` [Compound 44, 1-cyclopropyl-3-((1-isopentyl-5-(trifluoromethyl)-1H-imidazo[4,5-b]pyridin-2-yl)methyl)-1H-imidazo[4,5-c]pyridin-2(3H)-one], the EC50 in the data set on rgRSV224 virus (setting [1]) is 19 nM. Besides, the TOX-HELA_EC50 with HeLa cells (setting [2]) is over 98.3603 µM.

On to `CC(C)CCn1c(Cn2c(=O)n(C3CC3)c3ccc(F)cc32)nc2nc(Cl)ccc21` [Compound 6, 3-((5-chloro-1-isopentyl-1H-imidazo[4,5-b]pyridin-2-yl)methyl)-1-cyclopropyl-5-fluoro-1H-benzo[d]imidazol-2(3H)-one], for which the EC50 in the data set with rgRSV224 virus (setting [1]) amounted to 8.67 nM. Also, the TOX-HELA_EC50 with HeLa cells (setting [2]) is over 9.836 µM.

For `CC(C)CCn1c(Cn2c(=O)n(C3CC3)c3ccncc32)nc2cccnc21` [Compound 24, 1-cyclopropyl-3-((3-isopentyl-3H-imidazo[4,5-b]pyridin-2-yl)methyl)-1H-imidazo[4,5-c]pyridin-2(3H)-one], in the data set with rgRSV224 virus (setting [1]), the EC50 came to 1220 nM. The compound further yielded a TOX-HELA_EC50 with HeLa cells (setting [2]) of over 98.3603 µM.

Regarding `CC(C)CCn1c(Cn2c(=O)n(C3CC3)c3ccncc32)nc2ccncc21` [Compound 34], in the data set on rgRSV224 virus (setting [1]), the EC50 was 74 nM. In addition, in the data set on HeLa cells (setting [2]), the TOX-HELA_EC50 is over 98.3603 µM.

For `CC(C)CCn1c(Cn2c(=O)n(C3CC3)c3ccncc32)nc2cc(CN)cnc21` [Compound 17, 3-((6-(aminomethyl)-3-isopentyl-3H-imidazo[4,5-b]pyridine-2-yl)methyl)-1-cyclopropyl-1H-imidazo[4,5-c]pyridin-2(3H)-one], the EC50 with rgRSV224 virus (setting [1]) was 11.8 nM. Besides, the TOX-HELA_EC50 with HeLa cells (setting [2]) was over 98.3603 µM.
